According to patent US20240124445A1, “BENZENE RING COMPOUND AND USE THEREOF” (NANJING SHIJIANG MEDICINE TECHNOLOGY CO., LTD, priority 2020, published 2024):
Where two headings read alike, the source gives them in different places.

Assays:
[1] = Stability in human liver microsome; type: in vitro ADME; conditions: liver microsomes, pH 7.4, 1.5 μM drug solution, NADPH, 37° C., read-out: Human T1/2
Protocol: Vortexing for 10 min, the sample was centrifuged with 5594×g for 15 min in centrifuger (Thermo Multifuge×3R). • 10) taking 50 μL supernatant from the centrifuged sample, transferred to 96 well sample plate contain 50 μL water, mixed, and the sample was analyzed using LC-MS/MS.

NCI-H82 cell = assay: Cell viability (Promega CellTiter-Glo) of NCI-H82 cell; type: cell-based; conditions: Homo sapiens
Protocol: Cell viability was detected using the Promega CellTiter-Glo kit, the kit reflected cell viability by directly measuring intracellular ATP content. Small cell lung cancer cell NCI-H82 (ATCC, No. HTB-175) was cultured in 10% fetal bovine serum-containing RPMI1640 medium (+P/S).
(§1) Cell viability was detected using the Promega CellTiter-Glo kit, the kit reflected cell viability by directly measuring intracellular ATP content.
(§2) Daoy cell was cultured in 10% fetal bovine serum-containing DMEM medium (+P/S), and NCI-H82 cell was cultured in 10% fetal bovine serum-containing RPMI1640 medium (+P/S).
Cell viability was detected using the Promega CellTiter-Glo kit, the kit reflected cell viability by directly measuring intracellular ATP content. In the experiment, the IC50 value of different compounds on different tumor cell lines was detected to determine cell lines that were sensitive or insensitive to different compounds.
Tumor cells were cultured in 10% FBS-containing medium (+p/s), and incubated for 3 h or the following day, then the gradient diluted compound was added. After 3 days of culture, the relevant IC50 (50% inhibiting concentration) was measured. The name, source and culture conditions of each tumor cell line were as follows:
Cell line NCI-H82 (ATCC, No. HTB-175) was cultured in 10% fetal bovine serum-containing RPMI1640 medium (+P/S).

Daoy cell = assay: Cell viability (CellTiter-Glo) of Daoy cell with or without CsA; type: cell-based; conditions: Homo sapiens
Protocol: as §1, §2

[2] = NCI-H82, read-out: IC50 NCI-H82 cell without CsA
[3] = NCI-H82 cell, Table 1, read-out: IC50
[4] = read-out: IC50 Daoy cell with CsA
[5] = read-out: IC50 Daoy cell without CsA

Row | IC50 (NCI-H82 cell; [3]) | SMILES | further results
1 | 0.15 µM | O=C1c2cc(OC(F)(F)F)ccc2CCC1[n+]1ccc2c(ccn2Cc2ccccc2)c1 (stereo not drawn) [AB27126] | half-life at 1 µM [1]: 20.8 h; IC50 (NCI-H82 cell; [2]): 0.15 µM; IC50 (Daoy cell; [4]): 0.28 µM; IC50 (Daoy cell; [5]): 1.95 µM
2 | 1.09 µM | O=C(C[n+]1ccc(NCc2ccccc2)nc1)c1ccc(-c2ccccc2)cc1 [AB24964] | half-life at 1 µM [1]: 3.6 h
3 | 0.26 µM | O=C1c2cc(OC(F)(F)F)ccc2CCC1[n+]1ccc(NCc2ccccc2)cc1 (stereo not drawn) [AB27156] | half-life at 1 µM [1]: 17.5 h; IC50 (NCI-H82 cell; [2]): 0.26 µM; IC50 (Daoy cell; [4]): 0.24 µM; IC50 (Daoy cell; [5]): 1.05 µM
4 | 0.18 µM | O=C1c2cc(Cl)ccc2CCC1[n+]1ccc(NCc2ccccc2)cc1 (stereo not drawn) [AB24913] | half-life at 1 µM [1]: 7.97 h
5 | 0.77 µM | O=C1c2cc(Cl)ccc2CCC1[n+]1ccc2c(c1)CCC(c1ccccc1)N2 (stereo not drawn) [AB27130] | half-life at 1 µM [1]: 5.96 h; IC50 (NCI-H82 cell; [2]): 0.77 µM; IC50 (Daoy cell; [4]): 0.31 µM; IC50 (Daoy cell; [5]): 5.5 µM
6 | 0.03 µM | O=C1c2cc(Cl)ccc2CCC1[n+]1ccc2c(ccn2Cc2ccccc2)c1 (stereo not drawn) [AB27124] | half-life at 1 µM [1]: 1.77 h
7 | 0.01 µM | CC(c1ccccc1)[n+]1ccc2c(ccn2C2CCc3ccc(Cl)cc3C2=O)c1 (stereo not drawn) [AB27141] | half-life at 1 µM [1]: 4.85 h; IC50 (NCI-H82 cell; [2]): 0.01 µM; IC50 (Daoy cell; [4]): 0.028 µM; IC50 (Daoy cell; [5]): > 1 µM
8 | 0.06 µM | Cc1cn(Cc2ccccc2)c2cc[n+](C3CCc4ccc(Cl)cc4C3=O)cc12 (stereo not drawn) [AB27142] | half-life at 1 µM [1]: 12.4 h
9 | 5.78 µM | Cc1ccc(C(=O)Cn2cnc(/C=C/c3ccccc3)c2)cc1 [AB24850] | 
10 | 4.09 µM | Cc1ccccc1C(=O)C[n+]1ccc2c(Cc3ccccc3)c[nH]c2c1 [AB24861] | 
11 | 0.33 µM | COc1ccc(C(=O)C[n+]2ccc(NCc3ccccc3)nc2)cc1 [AB24963] | 
12 | 5.93 µM | CC(C)(C(=O)c1ccc(Cl)cc1)[n+]1ccc(NCc2ccccc2)cc1 [AB24813] | 
13 | 2.59 µM | O=C1c2ccc(Cl)cc2CC1[n+]1ccc(NCc2ccccc2)cc1 (stereo not drawn) [AB24840A] | half-life at 1 µM [1]: 2.33 h
14 | 0.04 µM | Cc1ccc2c(c1)C(=O)C([n+]1ccc3c(c1)c(C)cn3Cc1ccccc1)CC2 (stereo not drawn) [AB27176] | 
15 | 0.92 µM | O=C(C[n+]1ccc2c(ccn2Cc2ccccc2)c1)c1ccc(OC(F)(F)F)cc1 [AB24988] | 
16 | 0.99 µM | O=C(C[n+]1ccc2c(c1)CCCC(c1ccccc1)N2)c1ccc(Cl)cc1 (stereo not drawn) [AB24839] | half-life at 1 µM [1]: 11.2 h
17 | 0.34 µM | Cc1ccc2c(c1)C(=O)C([n+]1ccc3c(c1)CCC(c1ccccc1)N3)CC2 (stereo not drawn) [AB27133] | 
18 | 0.16 µM | O=C1c2cc(C(F)(F)F)ccc2CCC1[n+]1ccc(NCc2ccccc2)cc1 (stereo not drawn) [AB27144] | half-life at 1 µM [1]: 75.2 h; IC50 (NCI-H82 cell; [2]): 0.16 µM; IC50 (Daoy cell; [4]): 0.21 µM; IC50 (Daoy cell; [5]): 1.02 µM
19 | 2.09 µM | Cc1ccc(C(=O)C[n+]2ccc3c(ccn3-c3ccccc3)c2)cc1 [AB24895] | 
20 | 3.4 µM | Nc1cccc(C(=O)C[n+]2ccc(NCc3ccccc3)cc2)c1 [AB24983] | 
21 | 0.23 µM | Cc1ccc2c(c1)CCC([n+]1ccc3c(ccn3C(C)c3ccccc3)c1)C2=O (stereo not drawn) [AB27184] | 
22 |  | Cc1ccc(C(=O)C[n+]2ccc3ccn(Cc4ccccc4)c3c2)cc1 [AB24945] | IC50 (NCI-H82 cell; NCI-H82): 4.22 µM
23 | 2.18 µM | O=C(C[n+]1ccc2c(Cc3ccccc3)c[nH]c2c1)c1ccc(OC(F)(F)F)cc1 [AB27107] | 
24 | 3.22 µM | Cc1cccc2c1C(=O)C([n+]1ccc(NCc3ccccc3)cc1)C2 (stereo not drawn) [AB24904] | 
25 | 1.57 µM | Cc1ccc(C(=O)C[n+]2ccc3c(Cc4cccc(Cl)c4)c[nH]c3c2)cc1 [AB24854] | 
26 | 6.57 µM | Cc1ccc(C(=O)C[n+]2csc(NCc3ccccc3)c2)cc1 [AB24851] | 

Row | IC50 (NCI-H82 cell; [3]) | SMILES | further results
27 | 3.58 µM | O=C(C[n+]1ccc2c(-c3ccccc3)c[nH]c2c1)c1cccc([N+](=O)[O-])c1 [AB24878] | 
28 | 3.13 µM | Cc1ccc(C(=O)C[n+]2ccc3c(c2)ncn3Cc2ccccc2)cc1 [AB24885] | 
29 | 0.85 µM | O=C(C[n+]1ccc2c(ccn2Cc2ccccc2)c1)c1cccc([N+](=O)[O-])c1 [AB24888] | 
30 | 0.55 µM | O=C1c2cc(OC(F)(F)F)ccc2CCC1[n+]1ccc2c(ccn2C2CC2)c1 (stereo not drawn) [AB27158] | 
31 | 3.88 µM | O=C(C[n+]1ccc(NCc2ccccc2)nc1)c1cccc(OC(F)(F)F)c1 [AB24967] | 
32 | 0.24 µM | CC(c1ccccc1)n1ccc2c[n+](C3CCc4ccc(OC(F)(F)F)cc4C3=O)ccc21 (stereo not drawn) [AB27162] | 
33 | 0.34 µM | O=C(C[n+]1ccc2c(ccn2Cc2ccccc2)c1)c1cccc(Cl)c1 [AB24991] | 
34 | 0.65 µM | CCn1ccc2c[n+](C3CCc4ccc(OC(F)(F)F)cc4C3=O)ccc21 (stereo not drawn) [AB27155] | 
35 | 1.01 µM | O=C1c2cc([N+](=O)[O-])ccc2CCC1[n+]1ccc(NCc2ccccc2)cc1 (stereo not drawn) [AB24920] | 
36 | 1.35 µM | O=C1c2ccc(C(F)(F)F)cc2CCC1[n+]1ccc2c(ccn2Cc2ccccc2)c1 (stereo not drawn) [AB24996] | 
37 |  | O=C(C[n+]1ccc2cc(-c3ccccc3)[nH]c2c1)c1ccc(Cl)cc1 [AB24831A] | IC50 (NCI-H82 cell; NCI-H82): 5.41 µM
38 |  | O=C(C[n+]1ccc2c(Cc3ccccc3)c[nH]c2c1)c1ccc([N+](=O)[O-])cc1 [AB24863] | IC50 (NCI-H82 cell; NCI-H82): 3.61 µM
39 | 0.44 µM | O=C1c2cc(C(F)(F)F)ccc2CCC1[n+]1ccc2c(c1)CCC(c1ccccc1)N2 (stereo not drawn) [AB27131] | half-life at 1 µM [1]: 6.81 h; IC50 (NCI-H82 cell; [2]): 0.44 µM; IC50 (Daoy cell; [4]): 0.71 µM; IC50 (Daoy cell; [5]): 4.75 µM
40 | 0.25 µM | CCCn1ccc2c[n+](C3CCc4ccc(OC(F)(F)F)cc4C3=O)ccc21 (stereo not drawn) [AB27145] | 
41 | 2 µM | O=C(C[n+]1ccc2c(ccn2Cc2ccccc2)c1)c1ccc(C(F)(F)F)cc1 [AB24987] | 
42 | 0.54 µM | O=C(C[n+]1ccc(NCc2ccccc2)cc1)c1ccccc1 [AB24807A] | half-life at 1 µM [1]: 3.31 h
43 | 7.17 µM | Cc1cnc(C(=O)C[n+]2ccc(NCc3ccccc3)cc2)cn1 [AB24821] | 
44 | 2.81 µM | Cn1ccc2c[n+](C3CCc4ccc(C(F)(F)F)cc4C3=O)ccc21 (stereo not drawn) [AB27148] | 
45 | 0.16 µM | CC(=O)N(Cc1ccccc1)c1cc[n+](CC(=O)c2ccc(C)cc2)cc1 [AB27166] | 
46 | 0.54 µM | Cc1ccc2c(c1)CCC([n+]1ccc(NCc3ccccc3)nc1)C2=O (stereo not drawn) [AB24961] | 
47 | 1.62 µM | O=C(C[n+]1ccc2c(Cc3ccccc3)c[nH]c2c1)c1ccc(C(F)(F)F)cc1 [AB27106] | 
48 | 1.98 µM | CCn1ccc2c[n+](C3CCc4ccc(C(F)(F)F)cc4C3=O)ccc21 (stereo not drawn) [AB27149] | 
49 | 0.11 µM | O=C1c2cc(C(F)(F)F)ccc2CCC1[n+]1ccc2c(ccn2Cc2ccccc2)c1 (stereo not drawn) [AB27125] | half-life at 1 µM [1]: 14.2 h; IC50 (NCI-H82 cell; [2]): 0.11 µM; IC50 (Daoy cell; [4]): 0.19 µM; IC50 (Daoy cell; [5]): 1.46 µM
50 | 1.66 µM | Cc1ccc2c(c1)CC([n+]1ccc(NCc3ccccc3)cc1)C2=O (stereo not drawn) [AB24906] | 
51 |  | O=C(C[n+]1ccc2cc(Cc3ccccc3)[nH]c2c1)c1ccc(Cl)cc1 [AB24828A] | IC50 (NCI-H82 cell; NCI-H82): 5.79 µM
52 | 2.52 µM | Cc1ccc2c(c1)C(=O)C([n+]1ccc(NCc3ccccc3)cc1)C2 (stereo not drawn) [AB24905] | 
